Peptide text beside a SMILES is read from it. * marks the point of attachment. NHtBu = CC(C)(C)N*
Assays:
[1] = method code SF-HPLC, from DOI: 10.1021/jm00119a020; conditions: pH 7.4
[2] = method code SF, from DOI: 10.1016/0048-3575(89)90162-4
[3] = method code SF-HPLC, from DOI: 10.1002/jps.2600830120, PMID: 8138917; conditions: pH 7.4
[4] = not given; remark: listed apart in the source
[5] = method code SF, from DOI: 10.1584/jpestics.8.69
[6] = not given; remark: listed apart in the source
[7] = method code SF, from PMID: 8265709; conditions: pH 7.4
[8] = pH 7.4
[9] = method code SF, from DOI: 10.3109/00498258709043934, PMID: 3564538
[10] = method code SF-RC, from DOI: 10.1016/s0969-8051(03)00049-0, PMID: 12900282; conditions: pH 7.4
[11] = method code SF-HPLC, from DOI: 10.1002/jps.23140, PMID: 22499243; conditions: pH 7.4
[12] = method code SF-HPLC, from DOI: 10.1021/js970291i, PMID: 9523983; conditions: pH 7.4
[13] = method code SF-GLC, from DOI: 10.1016/0048-3575(86)90042-8
[14] = method code SF-AS, from DOI: 10.1248/cpb.41.171; conditions: pH 7.0
[15] = method code SF-HPLC, from DOI: 10.1897/08-203.1, PMID: 18702564
[16] = not given; remark: listed apart in the source
[17] = method code SF, from DOI: 10.1007/bf01610114, PMID: 6839039
[18] = method code SF-RC, from DOI: 10.1016/s0969-8051(03)00050-7, PMID: 12900283; conditions: pH 7.4
[19] = not given; remark: listed apart in the source
[20] = pH 7.4; remark: listed apart in the source
[21] = method code SF-RC, from DOI: 10.1016/j.nucmedbio.2009.09.005, PMID: 20447558; conditions: pH 7.4
[22] = method code SF-GLC, from DOI: 10.1002/ps.2780120408; conditions: pH 7.0
[23] = not given; remark: listed apart in the source
[24] = method code SF-RC, from DOI: 10.1016/0969-8051(94)00090-7, PMID: 7767321; conditions: pH 7.4
[25] = not given; remark: listed apart in the source
[26] = not given; remark: listed apart in the source
[27] = method code SF-AS, from DOI: 10.1021/jm00384a018, PMID: 3806586
[28] = method code SF, from DOI: 10.1016/0378-5173(85)90102-4; conditions: pH 8.0
[29] = not given; remark: listed apart in the source
[30] = method code SF-AS, from DOI: 10.1021/jm00254a028, PMID: 4845386
[31] = method code SF-AS, from DOI: 10.1021/jm00160a012, PMID: 3761307; conditions: pH 7.4
[32] = method code SF-HPLC, from DOI: 10.1016/j.ejps.2013.04.020, PMID: 23624327
[33] = not given; remark: listed apart in the source
[34] = not given; remark: listed apart in the source
[35] = method code SF-HPLC, from DOI: 10.1016/j.bmcl.2010.02.057, PMID: 20231095; conditions: pH 7.4
[36] = method code SF-HPLC, from DOI: 10.1023/a:1015968113838, PMID: 3247280; conditions: pH 7.4
[37] = method code SF-RC, from DOI: 10.1002/jps.2600651126, PMID: 11336; conditions: pH 2.0
[38] = method code SF-AS, from THAKUR, B.; Mehta, U.; TIPNIS, P. (1981). Ortho effect in partition coefficients of some o-benzyloxybenzamides. Indian J Pharm Sci, 43(6)224-226.
[39] = method code SF-RC, from DOI: 10.1016/s0969-8051(01)00264-5, PMID: 11711307; conditions: pH 7.4
[40] = method code SF-AS, from DOI: 10.1081/jlc-100104900; conditions: pH 1.0
[41] = method code SF-AS, from DOI: 10.1021/jm00392a004, PMID: 3625703; conditions: pH 6.9
[42] = method code SF-RC, from DOI: 10.1021/jm000079i, PMID: 10956218; conditions: pH 7.4
[43] = not given; remark: listed apart in the source
[44] = method code SF-HPLC, from DOI: 10.1016/j.ejpb.2006.11.002, PMID: 17182232; conditions: pH 7.4
[45] = method code SF-RC, from DOI: 10.1023/a:1015892313856, PMID: 1495896; conditions: pH 7.2
[46] = method code SF, from DOI: 10.1016/0006-2952(79)90295-8, PMID: 36087

## CCCN1CCO[C@H]2c3cc(O)ccc3OC[C@@H]21
[1]
  logD: 1.97

## c1ccc(CCc2ccccc2)cc1
other
  logP: 4.6

## OC1(c2ccccc2Cl)CCCCC1n1cncn1 (configuration not stated)
[2]
  logP: 2.68

## CC(C(N)=O)c1ccc(-c2ccccc2)c(F)c1 (configuration not stated)
[3]
  logD: 3.2

## CCCCC(O)(Cn1cncn1)c1ccc(Cl)cc1Cl (configuration not stated)
[4]
  logP: 3.9

## CC(C(c1ccccc1)c1ccccc1)[N+](=O)[O-] (configuration not stated)
[5]
  logP: 3.91

## O=c1ccn(CCO)c(C(O)c2ccccc2)c1O (configuration not stated)
[6]
  logP: 0.58

## Cc1c(C(C)C)c(=O)n(-c2ccccc2)n1C
[7]
  logD: 1.94

## CCCC(=O)OCOC(=O)c1ccccc1OC(C)=O
[8]
  logD: 2.5

## CCC(C)OC(=O)C(C(=O)OC(C)CC)=C1SC=CS1 (configuration not stated)
[9]
  logP: 4.89

## CNc1ccc(/C=C/c2ccc(O)cc2)cc1
[10]
  logD: 2.36

## CCCCCCOP1(=O)COC(Cn2ccc(N)nc2=O)CO1 (configuration not stated)
[11]
  logD: 2.84

## Cc1ccnc2c1NC(=O)c1cccnc1N2C1CC1
[12]
  logD: 1.81

## ClC1(Cl)CC1(c1ccccc1)c1ccccc1
[13]
  logP: 4.88

## Cc1cc(-n2[nH]c3c(cnc4ccccc43)c2=O)cs1
[14]
  logD: 1.58

## CC(C)(c1ccc(O)cc1)c1ccc(O)cc1
[15]
  logP: 3.41

## Cn1ccc2cc(-c3nc4ccc(F)nc4o3)ccc21
[16]
  logP: 3.42

## C=CCOC(=O)c1ccccc1C(=O)OCC=C
[17]
  logP: 3.23

## CN(C)c1ccc2c(c1)Cc1cc(I)ccc1-2
[18]
  logD: 2.47

## Cc1cc2cc[nH]c2c(C(=O)Nc2ncccc2C)n1
[19]
  logP: 5.3

## CC(=O)OCC(CCn1cnc2cnc(N)nc21)COC(C)=O
[20]
  logD: 0.32

## CN(CCc1ccccc1)C(=O)c1ccc[nH]1
[21]
  logD: 1.65

## CCOP(=S)(Oc1ccc([N+](=O)[O-])cc1)c1ccccc1 (configuration not stated)
[22]
  logD: 3.85

## CC[C@@H](c1cccc(O)c1)[C@@H](C)CN(C)C
[23]
  logP: 2.77

## CC(C)(C(=O)c1ccccc1I)c1cccnc1
[24]
  logD: 2.19

## O=CC1=CC=C2C(C(=O)O)CCN2c2cc(Br)ccc21 (configuration not stated)
[25]
  logP: 3.6

## O=C1CN=C(c2cccc(Br)c2)c2cc(Br)ccc2N1
[26]
  logP: 3.88

## CC(=O)C1=CCCN(NC(=O)c2ccccc2)C1
[27]
  logP: -0.1

## NC(Cc1ccccc1)C(=O)OCn1ncc2c(=O)[nH]cnc21 (racemic)
[28]
  logD: 0.4

## OCCN1CCC(COc2ccc(I)cc2)CC1
[29]
  logP: 4

## OC1c2ccccc2C2CCCCC2C1O (configuration not stated)
[30]
  logP: 2.47

## CC1=C(N)C(=O)c2c(COC(N)=O)c3n(c2C1=O)CC(N1CC1)C3N1CC1 (configuration not stated)
[31]
  logD: 0.23

## O=C(/C=C/c1ccc(O)cc1)c1ccc(O)cc1O
[32]
  logP: 1.91

## COC(=O)C1(O)c2ccccc2-c2ccc(Cl)cc21 (configuration not stated)
[33]
  logP: 2.86

## CN(C)Cc1cc(I)ccc1Sc1ccc(Cl)cc1N
[34]
  logP: 3.31

## CCCC(=O)OC(C)OC(=O)c1sc2cc(O)c(O)cc2c1Cl (configuration not stated)
[35]
  logD: 2.16

## CCCCC(=O)OCC1OC(n2cc(I)c(=O)[nH]c2=O)CC1O (configuration not stated)
[36]
  logD: 1.44

## CSc1ccc2oc3ccc(C(=O)O)cc3c(=O)c2c1
[37]
  logD: 3.4

## COc1ccc(COc2ccccc2C(N)=O)cc1
[38]
  logP: 1.63

## CN(C)c1ccc(-c2nc3ccc(I)cc3o2)cc1
[39]
  logD: 2.09

## CC(C(=O)O)c1cccc(Oc2ccccc2)c1 (configuration not stated)
[40]
  logD: 3.45

## CCCCC1(c2ccncc2)CCC(=O)NC1=O (configuration not stated)
[41]
  logD: 1.68

## CN(C)c1ccccc1Sc1ccc(C#N)cc1N
[42]
  logD: 2.71

## COc1ccc2cc(CCC(C)=O)ccc2c1
[43]
  logP: 3.45

## CC(C)OC(=O)C(NC(=O)c1cccnc1)n1cc(F)c(=O)[nH]c1=O (configuration not stated)
[44]
  logD: 0.62

## CC(=O)NC(C)C(=O)N1CCCC1C(=O)NC(C)(C)C (stereo not drawn) (Ac-Ala-Pro-NHtBu; configuration not given here)
[45]
  logD: -0.39

## CC(C)NCC(O)COc1cccc(CC(N)=O)c1 (configuration not stated)
[46]
  logP: 0.22

Source: the SangsterLogP compilation
